These results are taken from paper PMC9055851 (RSC Advances, 2020).

The experiment has as its target Aβ42 peptide (Homo sapiens, UniProt P05067). The experiment is described as follows: ThT fluorescence assay for inhibition of Aβ42 fibrillation. The format is biochemical.

The term inhibition denotes how much of the control response was suppressed.

Aβ42 peptide, sequence (P05067 672-713): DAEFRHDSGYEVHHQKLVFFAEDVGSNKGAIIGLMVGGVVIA

Regarding `O=[N+]([O-])c1ccc(/N=N/c2ccc3nc(-c4ccccc4)c(I)c(-c4ccccc4)c3c2)cc1` [Compound 1d, (E)-3-Iodo-6-((4-nitrophenyl)diazenyl)-2,4-diphenylquinoline], under “Aβ42 25 μM, compounds 25 μM, PBS, 37 °C, 24 h”, the “% inhibition for Aβ aggregation” value was 75.2 ± 3.0%. Also, the inhibition at 25 µM (read-out: % inhibition for Aβ aggregation, Aβ42 25 μM, compounds 25 μM, PBS, 37 °C, 24 h) is roughly 75%.
